The term GI50 denotes the concentration giving 50% growth inhibition. In general, TGI refers to the concentration giving total growth inhibition. Read a low TGI as greater sensitivity of the cells.

The results in this text go back to PubChem BioAssay (NCI).

Where “and” joins values, the source holds several entries; their conditions need not be identical. Equal entries are not always repeated.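 Where inhibition never reached the appropriate level, the endpoint shown equals the highest concentration tested. Otherwise, values were interpolated linearly from a five-concentration, 48-hour dose response in 96-well plates. At the GI50, growth is halved. At the TGI there is no net growth.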

Common to all, as to assay: DTP human tumour cell line panel, 48 h
In test [1] the test system is U251 CNS.
The subject of test [2] is SN12C renal.
Test [3] concerns A549 NSCLC.
For test [4], the system named is A498 renal.
Test [5] concerns RXF 393 renal.
The subject of test [6] is HCC-2998 colon.
Test [7] has as its system HL-60(TB) leukemia.
Test [8] concerns SF-295 CNS.
The test system of test [9] is SNB-19 CNS.
Test [10] relates to M14 melanoma.

In the case of `CCCCNP1(NCCCC)=NP(NCCCC)(NCCCC)=NP(NCCCC)(NCCCC)=NP(NCCCC)(NCCCC)=N1`, the GI50 is 0.296 µM in [1]; 0.331 µM in test [2]; 0.593 µM in test [3]; 1.93 µM in test [4]; 1.97 µM in test [5]; 0.304 µM in test [6]. For the same compound, the 50% growth inhibitory concentration (GI50) in [7] was 0.098 µM; in test [8] it was 0.905 µM; in test [9], 1.12 µM; in test [10], 1.08 µM. Besides, the total growth inhibition concentration (TGI) in [1] was determined as 3.81 µM; in test [2], 12.5 µM; in test [3], 4.03 µM; in test [4] it was 8.01 µM; in [5] it was 10.2 µM; in test [6], 3.7 µM. Further, the TGI came to 0.888 µM in test [7], 5.6 µM in test [8], 27.9 µM in test [9] and 5.23 µM in test [10].

Consider `O=C1/C=C/[C@@H](O)[C@@H]2C[C@@H](O)C[C@H]2/C=C/CCC[C@H](CCc2ccc(NC(=S)Nc3ccc4c(c3)C(=O)OC43c4ccc(O)cc4Oc4cc(O)ccc43)cc2)O1`, for which the GI50 in [1] is 0.47 µM; in test [2], 2.17 µM; in test [3], 0.448 µM; in test [4], 0.141 µM; in [5], 0.266 µM; in [6], 0.302 µM. Moreover, the GI50 in [7] was 4.51 µM; in [8], 0.486 µM; in test [9], 0.59 µM; in [10], 0.36 µM. Besides, the TGI in test [1] is more than 100 µM; in test [2] it was more than 100 µM; in test [3] it was more than 100 µM; in test [4], 0.458 µM; in test [5], 0.736 µM; in [7], more than 100 µM. In addition, the TGI in [8] is more than 100 µM; in [9], more than 100 µM; in test [10], more than 49.2 µM.

`CN(C)c1ccc(/C=N/n2c(CCCCc3n[nH]c(=S)n3/N=C/c3ccc(N(C)C)cc3)n[nH]c2=S)cc1`: the GI50 was 74 µM in test [1]; more than 100 µM in test [2]; more than 100 µM in test [3]; more than 100 µM in [4]; more than 100 µM in test [5]; more than 100 µM in test [6]. In addition, the GI50 in test [7], in test [8], in test [9] and in test [10] was more than 100 µM in each case. Also, the concentration for total growth inhibition (TGI) in [1], in [2], in test [3], in test [4], in test [5] and in test [6] was more than 100 µM in each case. Moreover, the TGI in test [7], in test [8], in test [9] and in test [10] was more than 100 µM each time.

In the case of `O=C(Nc1cccc(-n2ccc3c(NC(=O)c4ccccc4)nccc32)c1)c1ccc(Cl)c(Cl)c1`, the 50% growth inhibitory concentration (GI50) in test [1] is 0.0875 µM; in [2], 0.38 µM; in test [3] it was 0.136 µM; in [4], 0.13 µM; in test [5], 0.106 µM; in test [6] it was 0.286 µM. The 50% growth inhibitory concentration (GI50) in test [7] is 0.188 µM; in test [8], 0.0645 µM; in test [9], 0.219 µM; in test [10], 0.117 µM. Also, the concentration for total growth inhibition (TGI) turned out to be 1.6 µM in [1]; 1.78 µM in [2]; 1.71 µM in test [3]; 0.735 µM in [4]; 0.639 µM in test [5]; 1.27 µM in [6]. In addition, the total growth inhibition concentration (TGI) in test [7] amounted to 0.977 µM; in [8], 1.31 µM; in test [9], 1.89 µM; in test [10], 0.802 µM.

As to `CC[C@H](C)[C@H](NC(=O)[C@H]1CCCCN1C)C(=O)N(C)[C@H](C[C@@H](OC(C)=O)c1nc(C(=O)NC23C4C5C2C2C3C4C52C(=O)OC)cs1)C(C)C` (some centres undefined), the GI50 was 0.00424 µM and 0.0025 µM in test [1]; 0.00199 µM and 0.0025 µM in [2]; 0.00879 µM and 0.0025 µM in test [3]; 0.0139 µM and 0.00317 µM in test [4]; 0.000768 µM in test [5]; 0.00336 µM and 0.0025 µM in [6]. Also, the 50% growth inhibitory concentration (GI50) in test [7] was 0.000317 µM and < 0.0025 µM; in test [8] it was 0.00253 µM and 0.0025 µM; in test [9] it was 0.00396 µM and 0.0025 µM; in [10], 0.00713 µM and < 0.0025 µM. Moreover, the TGI in [1] is more than 25 µM; in test [2] it was 9.33 µM; in [3], more than 25 µM; in test [4], 0.133 µM; in test [5] it was 0.00906 µM; in test [6] it was 14.3 µM. Moreover, the TGI in test [7] is 0.00196 µM and < 0.0025 µM; in test [8], 0.0944 µM and 0.282 µM; in [9] it was more than 25 µM; in test [10], less than 0.0025 µM.

With `O=C(C(=O)c1cccnc1)c1cccnc1`, the GI50 in test [1], in test [2], in test [3], in test [4], in [5] and in test [6] was more than 100 µM throughout. The GI50 in test [7], in test [8], in [9] and in test [10] was more than 100 µM throughout. Moreover, the concentration for total growth inhibition (TGI) in [1], in test [2], in [3], in [4], in test [5] and in [6] was more than 100 µM each time. Moreover, the TGI in [7], in test [8], in [9] and in [10] was more than 100 µM throughout.

`O=c1[nH][nH]c(=O)c2c(O)c(-c3ccccc3)ncc12`: the GI50 in test [1] is 31.4 µM and 48.8 µM; in test [2] it was 62.6 µM and 160 µM; in [3], 57.7 µM and 325 µM; in test [4] it was 24.9 µM and 32.2 µM; in test [5] it was 27.8 µM and 44.9 µM; in [6] it was 34.9 µM and 103 µM. Besides, the GI50 in test [7] was 74.4 µM and 174 µM; in test [8], 40.7 µM and 69.3 µM; in test [9], 47.6 µM and 71.6 µM; in [10], 32.8 µM and 63.3 µM. Besides, the TGI was 79.8 µM and 405 µM in test [1]; 623 µM in test [2]; 807 µM in [3]; 61.7 µM and 119 µM in test [4]; 62 µM and 187 µM in test [5]; 642 µM in test [6]. For the same compound, the TGI amounted to 553 µM in test [7], 800 µM in test [8], 841 µM in test [9] and 385 µM in test [10].
